Assay results from paper PMC7868322, “Rational Design of A Novel Small-Molecule HIV-1 Inactivator Targeting Both gp120 and gp41 of HIV-1” (Frontiers in Pharmacology, 2021).
Like-named read-outs stand apart in the source and are kept apart here.

What was measured:
HIV-1 IIIB (X4) = experiment: Inhibition of HIV-1 infection (p24 ELISA); assay type: cell-based; settings: Human immunodeficiency virus 1, MT2; laboratory-adapted strain IIIB, MT-2 cells, p24 ELISA; read-out: IC50, inhibition of HIV-1 IIIB infection
[1] = biological target: T1, 6HB formation between N36 and C34 (Human immunodeficiency virus type 1 group M subtype B, UniProt P04578); experiment: N-PAGE inhibition of six-helix bundle formation; assay type: biochemical, HIV-1; settings: peptides 40 μM final
T1 construct: purchased NIH AIDS Reagent Program
Description: The sample was mixed with Tris-glycine native sample buffer and then loaded onto the 18% Tris-glycine gel. Gel electrophoresis was carried out with 125 V constant voltage at room temperature for 3 h.

Cytotoxicity (CCK-8) = assay type: cell-based; settings: human
Description: Cell viability was detected following the instructions in the protocol provided in the cell counting kit-8 (CCK-8; Dojindo Molecular Technologies, Gaithersburg, MD, USA) as previously described ([Yang et al., 2018]). Briefly, MT-2 cells and CEMx174 517 5.25 M7 cells (3 × 10^4/well) were incubated with compounds at different concentrations at 37°C for 48 h. Then, the supernatant was discarded, and CCK8 diluted 10 times with fresh medium was added (200 μL/well). After 2–6 h of incubation at 37°C, the absorbance at 450 nm was measured using a microplate reader (Tecan, Männedorf, Switzerland).

WT (NL4-3 D36G) = assay type: cell-based, HIV-1; settings: T20-resistant virus panel, means ± SD
T20-resistant virus V38A = assay type: cell-based, HIV-1; settings: means ± SD
[2] = system: T20-resistant virus V38A N42T; assay type: cell-based, HIV-1; settings: means ± SD
[3] = system: T20-resistant virus V38A N42D; assay type: cell-based, HIV-1; settings: means ± SD
[4] = system: T2635-resistant virus K90E; assay type: cell-based, HIV-1; settings: means ± SD
[5] = system: T2635-resistant virus K90E N126K; assay type: cell-based, HIV-1; settings: means ± SD
[6] = system: T2635-resistant virus H3C; assay type: cell-based, HIV-1; settings: T2635-resistant virus H3C (A6V L33S Q66R N126K H132Q E136G); means ± SD
92/TH/009 (A/E, R5) = experiment: Inactivation of cell-free HIV-1 clinical virus; assay type: cell-based; settings: Human immunodeficiency virus 1, inactivation of cell-free virions, means ± SD
KNH1135 (A, R5) = experiment: microbe, parasite or virus in culture; assay type: cell-based, HIV-1; settings: Human immunodeficiency virus 1; inactivation of cell-free virions, clinical virus KNH1135 (A, R5); means ± SD
PBL288 (C, R5) = experiment: Inactivation of cell-free HIV-1 clinical virus; assay type: cell-based; settings: Human immunodeficiency virus 1, inactivation of cell-free virions, means ± SD
D36G (NL4-3 WT) = assay type: cell-based, HIV-1; settings: inactivation of cell-free virions, T20-resistant panel D36G (NL4-3 WT); means ± SD
[7] = system: T20-resistant virus V38A N42D; assay type: cell-based, HIV-1; settings: inactivation of cell-free virions, means ± SD
[8] = system: T20-resistant virus V38E N42S; assay type: cell-based, HIV-1; settings: inactivation of cell-free virions, means ± SD
[9] = system: T2635-resistant virus N113E; assay type: cell-based, HIV-1; settings: inactivation of cell-free virions, means ± SD
[10] = system: T2635-resistant virus K90E N126K; assay type: cell-based, HIV-1; settings: inactivation of cell-free virions, means ± SD
[11] = system: T2635-resistant virus H3C; experiment: microbe, parasite or virus in culture; assay type: cell-based, HIV-1; settings: Human immunodeficiency virus 1

T1 sequence (P04578 546-581): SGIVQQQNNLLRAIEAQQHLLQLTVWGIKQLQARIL

CC1(C)CC(NC(=O)C(=O)Nc2ccc(Cl)c(F)c2)CC(C)(C)N1C(=O)COc1ccc(CCN2C(=O)/C(=C/c3ccc(-c4ccc(Cl)c(C(=O)O)c4)o3)SC2=S)cc1 [FD028, (Z)-2-Chloro-5-(5-((3-(4-(2-(4-(2-((4-Chloro-3-Fluorophenyl)amino)-2-oxoacetamido)-2,2,6,6-Tetramethylpiperidin-1-yl)-2-oxoethoxy)phenethyl)-4-oxo-2-Thioxothiazolidin-5-ylidene)methyl)furan-2-yl)benzoic Acid]
IC50 (HIV-1 IIIB (X4)): 0.33 µM
IC50 [1]: 100 to 200 µM
CC50 at 48 h (Cytotoxicity (CCK-8); CEMx174 5.25 M7 cells, read-out: CC50, CEMx174 5.25 M7 cell): 18.2 µM
CC50 at 48 h (Cytotoxicity (CCK-8); MT-2 cells, read-out: CC50, MT-2 cell): 29.5 µM
IC50 (WT (NL4-3 D36G)): 0.17 ± 0.06 µM
IC50 (T20-resistant virus V38A): 1.09 ± 0.13 µM
IC50 [2]: 0.95 ± 0.06 µM
IC50 [3]: 0.48 ± 0.11 µM
IC50 [4]: 0.79 ± 0.28 µM
IC50 [5]: 0.46 ± 0.11 µM
IC50 [6]: 0.27 ± 0.06 µM
EC50 (92/TH/009 (A/E, R5)): 0.26 ± 0.06 µM
EC50 (KNH1135 (A, R5)): 1.23 ± 0.32 µM
EC50 (PBL288 (C, R5)): 0.54 ± 0.18 µM
EC50 (D36G (NL4-3 WT)): 0.41 ± 0.02 µM
EC50 [7]: 0.63 ± 0.14 µM
EC50 [8]: 0.49 ± 0.03 µM
EC50 [9]: 1.2 ± 0.16 µM
EC50 [10]: 0.49 ± 0.06 µM
EC50 [11]: 1.2 ± 0.14 µM
